Biological target: T1, human ΔF508-CFTR (Homo sapiens, UniProt P13569, DEL508-508)
T1 construct: expressed in transfected cells
Experiment: CFTR-YFP high throughput assay, CFTR corrector protocol (YFP iodide flux quench)
Type: cell-based
Conditions: FRT cells expressing human ΔF508-CFTR and YFP-H148Q/I152L, 24-26 h incubation with compound; for Emax: normalized to the positive control, read-out: EMAX (% Efficacy, EMAX normalized to the positive control); for EC50: stimulated with 20 μM Forskolin & 30 μM P3
Protocol: Assays for Detecting and Measuring the Effect of Compounds on dF508-CFTR Channels CFRT-YFP High Throughput Assay-CFTR Corrector Protocol:
This protocol is designed to selectively screen small molecule compounds for F508del CFTR corrector activities in the HTS YFP flux assay. In this protocol, the cells are incubated with testing compounds for 24 hours, washed with PBS, stimulated with forskolin and a standard potentiator, and read on a 384-well HTS plate reader, such as the Hamamatsu FDDD-6000.
YFP fluorescence intensity is acquired at high speed before and after iodide buffer is injected to the assay cells. Iodide enters the cells via active CFTR channels in the plasma membrane, and quenches the YFP fluorescence. The rate of fluorescence quenching is proportionally related to the total CFTR activities in the cell membrane. dF508-CFTR corrector accelerates YFP quenching by increasing the number of CFTR molecules in the testing cell plasma membrane.
This method was initially developed for bench top plate readers (Galietta et al., 2001), and was adapted to the HTS format (Sui et al. Assay Drug Dev. Technol. 2010).
Fisher Rat Thyroid (FRT) cells stably expressing both human ΔF508-CFTR and a halide-sensitive yellow fluorescent protein (YFP-H148Q/I152L 25,22) (Galietta et al., Am. J. Physiol Cell Physiol, 281(5), C1734, 2001) were cultured on plastic surface in Coon's modified Ham's F12 medium supplemented with FBS 10%, L-glutamine 2 mM, penicillin 100 U/ml, and streptomycin 100 μg/ml. G418 (0.75-1.0 mg/ml) and zeocin (3.2 ug/ml) were used for selection of FRT cells expressing ΔF508-CFTR and YFP. For primary screening, FRT cells were plated into 384-well black wall, transparent bottom microtiter plates (Costar; Corning Inc.) at a cell density of 20,000-40,000 per well. Test compound was applied to the cells at varying concentrations ranging from 2 nM-[…] in either a 2-fold or 3-fold dilution series. Cells were incubated in a cell culture incubator at 37° C. with 5% CO2 for 24-26 h. Assay plates were washed with DPBS media (Thermo, cat #SH30028.02) to remove unbound cells and compound. Stimulation media (25 μL) containing 20 μM Forskolin & 30 μM P3 [6-(Ethyl-phenyl-sulfonyl)-4-oxo-1,4-dihydro-quinoline-3-carboxylic acid 2-methoxy-benzylamide] in Hams F-12 coon's modified media was added to the plate wells and incubated at room temperature for 60-120 min. 25 μL of HEPES-PBS -I buffer (10 mM HEPES, 1 mM MgCl2, 3 mM KCl, 1 mM CaCl2, 150 mM NaI) was then added and fluorescence quench curves (Excitation 500 nm/Emission 540 nm; exposure 136 ms) were immediately recorded on an FDSS-6000 plate reader (Hamamatsu). Quench rates were derived from least squares fitting of the data as described by Sui et al. (2010).

T1 sequence (P13569 with tags, fused parts or gaps DEL508-508): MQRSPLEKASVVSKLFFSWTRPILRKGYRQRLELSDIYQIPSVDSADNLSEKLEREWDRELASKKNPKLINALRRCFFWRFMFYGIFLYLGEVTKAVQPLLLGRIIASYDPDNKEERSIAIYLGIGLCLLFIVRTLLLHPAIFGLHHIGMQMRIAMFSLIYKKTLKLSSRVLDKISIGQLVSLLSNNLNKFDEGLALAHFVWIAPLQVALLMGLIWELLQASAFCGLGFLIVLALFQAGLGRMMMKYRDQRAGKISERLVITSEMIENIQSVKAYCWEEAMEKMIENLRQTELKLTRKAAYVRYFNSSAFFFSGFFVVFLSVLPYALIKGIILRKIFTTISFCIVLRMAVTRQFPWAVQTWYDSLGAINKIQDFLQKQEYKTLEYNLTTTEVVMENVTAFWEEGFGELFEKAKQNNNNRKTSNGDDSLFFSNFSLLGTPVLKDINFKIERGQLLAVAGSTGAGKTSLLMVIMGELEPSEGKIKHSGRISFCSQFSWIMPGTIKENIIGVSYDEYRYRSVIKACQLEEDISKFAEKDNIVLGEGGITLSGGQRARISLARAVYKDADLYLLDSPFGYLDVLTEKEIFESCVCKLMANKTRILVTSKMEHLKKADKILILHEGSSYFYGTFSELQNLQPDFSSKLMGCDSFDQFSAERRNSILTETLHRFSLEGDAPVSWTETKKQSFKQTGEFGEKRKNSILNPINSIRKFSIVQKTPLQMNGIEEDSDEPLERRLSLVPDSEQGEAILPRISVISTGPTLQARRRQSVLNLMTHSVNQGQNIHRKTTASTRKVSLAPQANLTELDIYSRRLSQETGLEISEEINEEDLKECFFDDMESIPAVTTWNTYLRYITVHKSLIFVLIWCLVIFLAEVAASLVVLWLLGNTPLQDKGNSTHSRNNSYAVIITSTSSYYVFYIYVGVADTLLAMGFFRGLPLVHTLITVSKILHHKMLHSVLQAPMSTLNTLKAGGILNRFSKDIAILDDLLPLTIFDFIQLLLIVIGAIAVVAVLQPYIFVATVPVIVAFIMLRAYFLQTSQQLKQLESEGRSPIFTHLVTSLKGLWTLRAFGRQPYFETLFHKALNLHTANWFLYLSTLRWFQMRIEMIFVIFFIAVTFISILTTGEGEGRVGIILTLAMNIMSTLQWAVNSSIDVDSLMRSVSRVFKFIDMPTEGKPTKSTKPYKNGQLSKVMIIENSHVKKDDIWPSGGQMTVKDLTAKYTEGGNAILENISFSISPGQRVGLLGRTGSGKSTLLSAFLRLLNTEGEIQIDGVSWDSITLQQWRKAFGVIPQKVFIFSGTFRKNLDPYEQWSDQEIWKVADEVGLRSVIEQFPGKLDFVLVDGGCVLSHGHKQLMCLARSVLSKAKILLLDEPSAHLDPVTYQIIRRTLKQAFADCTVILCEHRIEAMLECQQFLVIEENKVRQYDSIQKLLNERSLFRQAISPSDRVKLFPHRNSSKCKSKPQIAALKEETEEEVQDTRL

Emax	EC50	SMILES
30 to 80%	< 10 µM	COc1ccc(S(=O)(=O)N2CCC(n3c(-c4ccccc4)nc4cc(Cl)cnc43)CC2)cc1Cl [Example 35]
30 to 80%	< 10 µM	COc1cc(S(=O)(=O)N2CCC(n3c(-c4ccccc4)nc4cccnc43)CC2)ccc1Cl [Example 37]
30 to 80%	< 10 µM	COc1ccc(S(=O)(=O)N2CCC(n3c(-c4ccccc4O)nc4cccnc43)CC2)cc1Cl [Example 9, 2-(3-(1-((3-Chloro-4-methoxyphenyl)sulfonyl)piperidin-4-yl)-3H-imidazo[4,5-b]pyridin-2-yl)phenol]
10 to 30%	> 20 µM	Cc1ccc2nc(-c3ccncc3Cl)n(C3CCN(S(=O)(=O)c4ccc5c(c4)OCO5)CC3)c2n1 [Example 14, 3-(1-(Benzo[d][1,3]dioxol-5-ylsulfonyl)piperidin-4-yl)-2-(3-chloropyridin-4-yl)-5-methyl-3H-imidazo[4,5-b]pyridine]
30 to 80%	> 20 µM	COc1ccc(S(=O)(=O)N2CCC(n3c(-c4cnc[nH]4)nc4cccnc43)CC2)cc1Cl [Example 32]
30 to 80%	< 10 µM	COc1ccc(S(=O)(=O)N2CCC(n3c(-c4ccccc4)nc4cccnc43)CC2)cc1 [Example 19]
30 to 80%	< 10 µM	O=S(=O)(c1ccc2c(c1)OCO2)N1CCC(n2c(-c3ccccc3Cl)nc3cccnc32)CC1 [Example 1, 3-(1-(Benzo[d][1,3]dioxol-5-ylsulfonyl)piperidin-4-yl)-2-(2-chlorophenyl)-3H-imidazo[4,5-b]pyridine]
30 to 80%	< 10 µM	Cc1ccc(S(=O)(=O)N2CCC(n3c(-c4ccccc4)nc4cccnc43)CC2)cc1 [Example 17]
30 to 80%	< 10 µM	Cc1ccc(S(=O)(=O)N2CCC(n3c(-c4ccccc4)nc4cccnc43)CC2)cc1Cl [Example 20]
30 to 80%	< 10 µM	COc1ccc(S(=O)(=O)N2CCC(n3c(-c4ccccc4C)nc4cccnc43)CC2)cc1Cl [Example 30]
10 to 30%	< 10 µM	COc1ccc(S(=O)(=O)N2CCC(n3c(-c4ccccc4)nc4ccc(Cl)nc43)CC2)cc1Cl [Example 36]
30 to 80%	< 10 µM	COc1ccc(S(=O)(=O)N2CCC(n3c(C4CCCC4)nc4cccnc43)CC2)cc1Cl [Example 25]
30 to 80%	< 10 µM	O=S(=O)(c1ccc2c(c1)OCO2)N1CCC(n2c(-c3ccccc3)nc3cccnc32)CC1 [Example 5, 3-(1-(Benzo[d][1,3]dioxol-5-ylsulfonyl)piperidin-4-yl)-2-phenyl-3H-imidazo[4,5-b]pyridine]
30 to 80%	< 10 µM	Cc1ccc2nc(-c3cccnc3Cl)n(C3CCN(S(=O)(=O)c4ccc5c(c4)OC(F)(F)O5)CC3)c2n1 [Example 15, 2-(2-Chloropyridin-3-yl)-3-(1-((2,2-difluorobenzo[d][1,3]dioxol-5-yl)sulfonyl)piperidin-4-yl)-5-methyl-3H-imidazo[4,5-b]pyridine]
> 80%	10 to 20 µM	COc1ccc(S(=O)(=O)N2CCC(n3c(-c4ccccc4)nc4cccnc43)CC2)cc1Cl [Example 16]
10 to 30%	< 10 µM	COc1ccc(S(=O)(=O)N2CCC(n3c(-c4ccc(Cl)cc4)nc4cccnc43)CC2)cc1Cl [Example 29]
30 to 80%	< 10 µM	COc1ccc(S(=O)(=O)N2CCC(n3c(-c4ccccc4Cl)nc4cccnc43)CC2)cc1Cl [Example 6, 3-(1-((3-Chloro-4-methoxyphenyl)sulfonyl)piperidin-4-yl)-2-(2-chlorophenyl)-3H-imidazo[4,5-b]pyridine]
30 to 80%	< 10 µM	Cc1ccc2nc(-c3ccccc3Cl)n(C3CCN(S(=O)(=O)c4ccc5c(c4)OCO5)CC3)c2n1 [Example 2]

Emax	EC50	SMILES
30 to 80%	< 10 µM	COc1ccc(S(=O)(=O)N2CCC(n3c(-c4ccc(C)cc4)nc4cccnc43)CC2)cc1Cl [Example 24]
30 to 80%	< 10 µM	COc1ccc(S(=O)(=O)N2CCC(n3c(-c4ccncc4)nc4cccnc43)CC2)cc1Cl [Example 28]
30 to 80%	< 10 µM	COc1ccc(S(=O)(=O)N2CCC(n3c(C4CCCCC4)nc4cccnc43)CC2)cc1Cl [Example 31]
30 to 80%	< 10 µM	COc1ccc(S(=O)(=O)N2CCC(n3c(-c4ccccc4)nc4cc(C)cnc43)CC2)cc1Cl [Example 26]
30 to 80%	< 10 µM	COc1ccc(S(=O)(=O)N2CCC(n3c(-c4ccccc4)nc4ccc(C)nc43)CC2)cc1Cl [Example 3, 3-(1-((3-Chloro-4-methoxyphenyl)sulfonyl)piperidin-4-yl)-5-methyl-2-phenyl-3H-imidazo[4,5-b]pyridine]
30 to 80%	< 10 µM	Cc1ccc2nc(-c3ccccc3Cl)n(C3CCN(S(=O)(=O)c4ccc(C)c(Cl)c4)CC3)c2n1 [Example 7, 3-(1-((3-Chloro-4-methylphenyl)sulfonyl)piperidin-4-yl)-2-(2-chlorophenyl)-5-methyl-3H-imidazo[4,5-b]pyridine]
30 to 80%	< 10 µM	COc1ccc(S(=O)(=O)N2CCC(n3c(-c4cccc(Cl)c4)nc4cccnc43)CC2)cc1Cl [Example 22]
30 to 80%	< 10 µM	COc1ccc(S(=O)(=O)N2CCC(n3c(-c4ccccc4)nc4cccnc43)CC2)cc1F [Example 18]
30 to 80%	< 10 µM	COc1ccc(S(=O)(=O)N2CCC(n3c(-c4ccccc4F)nc4cccnc43)CC2)cc1Cl [Example 11, 3-(1-((3-Chloro-4-methoxyphenyl)sulfonyl)piperidin-4-yl)-2-(2-fluorophenyl)-3H-imidazo[4,5-b]pyridine]
30 to 80%	< 10 µM	COc1ccc(S(=O)(=O)N2CCC(n3c(-c4ccc5[nH]cnc5c4)nc4cccnc43)CC2)cc1Cl [Example 34]
> 80%	< 10 µM	COc1ccc(S(=O)(=O)N2CCC(n3c(-c4cccc(C)c4)nc4cccnc43)CC2)cc1Cl [Example 23]
30 to 80%	> 20 µM	CCc1ccc(S(=O)(=O)N2CCC(n3c(-c4ccccc4)nc4cccnc43)CC2)cc1 [Example 4, 3-(1-((4-Ethylphenyl)sulfonyl)piperidin-4-yl)-2-phenyl-3H-imidazo[4,5b]pyridine]
10 to 30%	< 10 µM	COc1ccc(S(=O)(=O)N2CCC(n3c(-c4ccc(Cl)cc4Cl)nc4cccnc43)CC2)cc1Cl [Example 12, 3-(1-((3-Chloro-4-methoxyphenyl)sulfonyl)piperidin-4-yl)-2-(2,4-dichlorophenyl)-3H-imidazo[4,5-b]pyridine]
30 to 80%	< 10 µM	Cc1ccc(S(=O)(=O)N2CCC(n3c(-c4ccccc4Cl)nc4cccnc43)CC2)cc1Cl [Example 10, 3-(1-((3-Chloro-4-methylphenyl)sulfonyl)piperidin-4-yl)-2-(2-chlorophenyl)-3H-imidazo[4,5-b]pyridine]
30 to 80%	< 10 µM	Cc1ccc2nc(-c3ccncc3Cl)n(C3CCN(S(=O)(=O)c4ccc5c(c4)OC(F)(F)O5)CC3)c2n1 [Example 13, 2-(3-Chloropyridin-4-yl)-3-(1-((2,2-difluorobenzo[d][1,3]dioxol-5-yl)sulfonyl)piperidin-4-yl)-5-methyl-3H-imidazo[4,5-b]pyridine]
10 to 30%	> 20 µM	COc1ccc(C(=O)N2CCC(n3c(-c4ccccc4)nc4cccnc43)CC2)cc1Cl [Example 21]
30 to 80%	< 10 µM	COc1ccc(S(=O)(=O)N2CCC(n3c(-c4cccnc4)nc4cccnc43)CC2)cc1Cl [Example 27]
30 to 80%	10 to 20 µM	COc1ccc(S(=O)(=O)N2CCC(n3c(-c4nc5ccccc5[nH]4)nc4cccnc43)CC2)cc1Cl [Example 33]

— patent US9771327B2, “Compounds and methods for the treatment of cystic fibrosis” (FLATLEY DISCOVERY LAB, LLC, priority 2013, dated 2017)
